Measured values taken from the NIST ThermoML archive (doi:10.1016/j.fluid.2017.02.012).

Settings: Liquid, Pendant drop shape

CCCCCCCCCCCCCCCCC [heptadecane] + O=C=O
Settings	interfacial tension [mN/m]
313.15 K, 390 kPa	25.11
313.15 K, 1300 kPa	22.73
313.15 K, 2350 kPa	20.26
313.15 K, 3500 kPa	17.14
313.15 K, 5000 kPa	13.27
313.15 K, 6500 kPa	9.3
313.15 K, 8000 kPa	5.34
313.15 K, 9000 kPa	2.7
333.15 K, 750 kPa	22.56
333.15 K, 1860 kPa	20.55
333.15 K, 2830 kPa	18.33
333.15 K, 3810 kPa	16.6
333.15 K, 4850 kPa	14.57
333.15 K, 5930 kPa	12.56
333.15 K, 7090 kPa	10.2
333.15 K, 8280 kPa	8.07
333.15 K, 9630 kPa	5.7
333.15 K, 10600 kPa	4.26
353.15 K, 940 kPa	19.98
353.15 K, 1910 kPa	18.81
353.15 K, 3030 kPa	17.6
353.15 K, 4000 kPa	16.02
353.15 K, 5220 kPa	14.29
353.15 K, 6110 kPa	12.99
353.15 K, 7210 kPa	11.23
353.15 K, 8580 kPa	9.36
353.15 K, 9500 kPa	8.34
353.15 K, 10740 kPa	6.77
353.15 K, 12020 kPa	5.27
353.15 K, 13180 kPa	4.15
373.15 K, 920 kPa	19.2
373.15 K, 2390 kPa	17.81
373.15 K, 4000 kPa	15.65
373.15 K, 5490 kPa	13.83
373.15 K, 7260 kPa	11.8
373.15 K, 9000 kPa	9.93
373.15 K, 10800 kPa	8.1
373.15 K, 12560 kPa	6.21
373.15 K, 13470 kPa	5.47
373.15 K, 14640 kPa	4.43
393.15 K, 1190 kPa	18.38
393.15 K, 4320 kPa	14.69
393.15 K, 6780 kPa	12.43
393.15 K, 10600 kPa	8.46
393.15 K, 13920 kPa	5.87

CCCCCCCCC [nonane] + O=C=O
Settings	interfacial tension [mN/m]
313.15 K, 500 kPa	20.26
313.15 K, 1490 kPa	17.76
313.15 K, 2460 kPa	15.19
313.15 K, 3500 kPa	12.77
313.15 K, 4500 kPa	10.11
313.15 K, 5490 kPa	7.35
313.15 K, 6620 kPa	4.28
313.15 K, 7290 kPa	2.5
333.15 K, 390 kPa	18.9
333.15 K, 1440 kPa	16.61
333.15 K, 2400 kPa	14.76
333.15 K, 3320 kPa	12.98
333.15 K, 4460 kPa	11.05
333.15 K, 5400 kPa	9.01
333.15 K, 6220 kPa	7.55
333.15 K, 7290 kPa	5.61
333.15 K, 8230 kPa	3.83
353.15 K, 1080 kPa	16.12
353.15 K, 2100 kPa	14.28
353.15 K, 3090 kPa	12.81
353.15 K, 4130 kPa	11
353.15 K, 5130 kPa	9.64
353.15 K, 6030 kPa	8.29
353.15 K, 6990 kPa	6.95
353.15 K, 8000 kPa	5.67
353.15 K, 9400 kPa	3.85
373.15 K, 1060 kPa	14.6
373.15 K, 2110 kPa	13.15
373.15 K, 3060 kPa	11.85
373.15 K, 4190 kPa	10.43
373.15 K, 5200 kPa	9.22
373.15 K, 6210 kPa	7.93
373.15 K, 7000 kPa	7.04
373.15 K, 7990 kPa	6.08
373.15 K, 9340 kPa	4.61
373.15 K, 10460 kPa	3.58
393.15 K, 940 kPa	13.32
393.15 K, 3080 kPa	10.78
393.15 K, 5700 kPa	8.17
393.15 K, 9300 kPa	4.7
393.15 K, 11410 kPa	2.98
